Values joined by “and” are separate entries in the source; they are usually repeats but may differ in a detail not shown here. Identical values can stand only once. Counter-ions that a name gives are not always drawn. Like-named read-outs stand apart in the source and are kept apart here.
Experiments:
[1] = target: human PDE3A (Homo sapiens, UniProt Q14432); assay: PDE-Glo phosphodiesterase assay, PDE3; assay type: biochemical; details: 2.75 ng PDE3A, 1 μM cAMP substrate, 15 min pre-incubation; read-out: IC50, inhibition of PDE3
Protocol: Method for FIG. 3. […] The compounds and PDE3A were mixed and pre-incubated at room temperature for 15 minutes. Substrate was added and the reaction was incubated for 7 minutes at room temperature. Data are presented as luminescence units (RLU).
Method for FIG. 4. Phosphodiesterase inhibition assays of PDE3 were performed using PMX-60056. The PDE-Glo phosphodiesterase assay (Promega, Madison, WI, USA Catalog No. V1361) was performed according to manufacturer's instruction using 2.75 ng of PDE3A, 1 μM cAMP substrate and PMX60056. The compounds and PDE3A were mixed and pre-incubated at room temperature for 15 minutes. Substrate was added and the reaction was incubated for 7 minutes at room temperature. Data are presented as luminescence units (RLU).
The compounds and PDE3A were mixed and pre-incubated at room temperature for 15 minutes. Substrate was added and the reaction was incubated. […]
(§1) PDE4 and PDE3 inhibition results in subsequent down-regulation of pro-inflammatory cytokines/chemokines and its regulators, and experiments were conducted to confirm such down-regulation by brilacidin in ex vivo cell-based assays. In these assays, cells were exposed to brilacidin 45 minutes before an 8-hour lipopolysaccharide (LPS) stimulation in the presence of brilacidin; cytokine/enzyme concentrations were determined by ELISA using a standard immunoassay kit.

[2] = test system: acetic acid-induced colitis; assay type: in vivo; details: for reduction of UC score: not significantly
Protocol: (§2) Method for FIG. 14. […] Balb/c mice were fasted for 24 hours. Colitis was induced by injecting 200 μL of 4% acetic acid into the rectum. […] Another group of animals were treated with 5-ASA (5-aminosalicylic acid or mesalamine), and another received no treatment. Seven days after the first dose, five cm of intestine were cleaned in cold saline then weighed.
as §2, with “15.” for “14.”, “dose the colon was examined visually for mucosal injury and scored according to the Table below.” for “dose, five cm of intestine were cleaned in cold saline then weighed.”
Briefly, colitis was induced by injecting 4% acetic acid into the rectum.

[3] = test system: LPS-induced TNF-α release, NR8383 cells; assay: LPS-induced TNF-α production in NR8383 rat macrophages (ELISA); assay type: cell-based
Protocol: Method for FIG. 5. TNF-alpha assays were performed using PMX-30063. […] TNF-α concentrations in the supernatants were determined by ELISA using an immunoassay kit specific for rat TNF-α (R&D Systems, Minneapolis, MN) according to manufacturer's instructions.
Method for FIG. 6. TNF-alpha assays were performed using PMX-60056. NR8383 rat macrophage cells were pretreated with PMX-60056 for 45 minutes followed by treatment with 1 μg/ml LPS from E. coli (Sigma, St. Louis, MO) for 8 hours. TNF-α concentrations in the supernatants were determined by ELISA using an immunoassay kit specific for rat TNF-α (R&D Systems, Minneapolis, MN) according to manufacturer's instructions.
The TNF-α inhibition assay was performed according to the Method described for FIG. 5. […] TNF-α concentrations in the supernatants were determined by ELISA using an immunoassay kit specific for rat TNF-α (R&D Systems).
The TNF-α inhibition assay was performed according to the Method described for FIG. 6. NR8383 rat macrophage cells (CRL-2192. ATCC) were pretreated with PMX-60056 for 45 minutes followed by treatment with 1 μg/ml LPS for 8 hours. TNF-α concentrations in the supernatants were determined by ELISA using an immunoassay kit specific for rat TNF-α (R&D Systems).
as §1

[4] = test system: LPS-induced IL-1β release, NR8383 cells; assay: LPS-induced IL-1β release in NR8383 rat alveolar macrophages (ELISA); assay type: cell-based; details: Macrophage, 8-hour brilacidin and LPS exposure, read-out: IC50, inhibition of LPS-induced IL-1β release
Protocol: (§3) To examine the effect of brilacidin on the pro-inflammatory cytokine IL-1β production in cells, rat alveolar macrophage (NR8383) cells were pretreated with a range of brilacidin concentrations for 45 minutes, followed by treatment with 1 μg/ml LPS from E. coli (Sigma, St. Louis, MO) for 8 hours in the presence of brilacidin. After 8 hours, supernatants were collected for IL-1β measurement by ELISA. IL-1β was measured using an immunoassay kit according to manufacturer's instructions (Thermo Scientific, Rockford, IL).
as §1

[5] = test system: Ulcerative Proctosigmoiditis/Ulcerative Proctitis (UP/UPS); assay: Phase 2 clinical trial CTIX-BRI-206 in Ulcerative Proctitis/Ulcerative Proctosigmoiditis; assay type: in vivo, human
Protocol: In a Phase 2 study (CTIX-BRI-206), clinical remission (with Endoscopic response) was achieved after 6 weeks of treatment in >50% subjects in each treatment cohort (50 mg, 100 mg, and 200 mg brilacidin, as daily retention enema) (FIG. 21, Panel A). Inflammatory biomarkers IL-1β and IL-6 were reduced in colonic tissue biopsies collected at Week 6 (Day 42) compared to those biopsies collected at baseline (FIG. 21, Panel B).

[6] = test system: LPS-induced CINC-3 release, NR8383 cells; assay: LPS-induced CINC-3 (CXCL2) release in NR8383 rat alveolar macrophages (ELISA); assay type: cell-based; details: Macrophage, 8-hour brilacidin and LPS exposure, read-out: IC50, inhibition of LPS-induced CINC-3 release
Protocol: as §3, with “on” for “on the pro-inflammatory cytokine IL-1β”, “cells of cytokine-induced neutrophil chemoattractant-3 (CINC-3; CXCL2),” for “cells,”, “CINC-3” for “IL-1β”, “(R&D Systems, Minneapolis, MN).” for “(Thermo Scientific, Rockford, IL).”
as §1

Chain of human PDE3A (Q14432 whole entry): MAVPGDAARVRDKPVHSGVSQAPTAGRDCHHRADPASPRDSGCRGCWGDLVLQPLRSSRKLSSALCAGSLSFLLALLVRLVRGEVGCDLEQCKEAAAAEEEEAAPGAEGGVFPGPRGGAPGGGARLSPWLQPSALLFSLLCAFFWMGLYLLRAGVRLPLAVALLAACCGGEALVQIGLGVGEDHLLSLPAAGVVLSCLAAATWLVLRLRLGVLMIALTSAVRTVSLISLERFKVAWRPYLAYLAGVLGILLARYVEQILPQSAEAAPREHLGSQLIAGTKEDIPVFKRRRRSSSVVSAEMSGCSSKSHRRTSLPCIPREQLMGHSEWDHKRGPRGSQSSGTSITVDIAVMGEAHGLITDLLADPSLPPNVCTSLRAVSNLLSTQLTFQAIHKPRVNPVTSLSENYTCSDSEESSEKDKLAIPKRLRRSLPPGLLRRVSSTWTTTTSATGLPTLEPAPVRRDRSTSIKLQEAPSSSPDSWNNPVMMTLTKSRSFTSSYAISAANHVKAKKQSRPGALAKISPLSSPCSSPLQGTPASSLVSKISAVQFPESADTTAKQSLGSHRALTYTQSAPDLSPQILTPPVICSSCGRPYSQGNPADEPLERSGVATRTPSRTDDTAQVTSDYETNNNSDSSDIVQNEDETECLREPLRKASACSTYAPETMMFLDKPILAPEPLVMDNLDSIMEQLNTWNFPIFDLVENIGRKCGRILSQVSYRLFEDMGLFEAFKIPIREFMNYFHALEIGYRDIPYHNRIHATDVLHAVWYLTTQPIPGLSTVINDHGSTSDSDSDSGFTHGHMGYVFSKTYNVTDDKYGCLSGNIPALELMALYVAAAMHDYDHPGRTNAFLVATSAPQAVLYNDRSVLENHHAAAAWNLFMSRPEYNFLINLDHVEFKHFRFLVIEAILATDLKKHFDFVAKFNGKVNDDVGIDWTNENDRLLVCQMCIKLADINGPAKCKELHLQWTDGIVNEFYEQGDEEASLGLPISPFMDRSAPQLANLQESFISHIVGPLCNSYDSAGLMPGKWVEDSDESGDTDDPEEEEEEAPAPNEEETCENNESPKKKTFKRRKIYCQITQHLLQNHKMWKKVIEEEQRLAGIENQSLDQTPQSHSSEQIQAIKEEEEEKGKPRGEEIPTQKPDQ

N=C(N)NCCCCC(=O)Nc1cc(C(F)(F)F)cc(NC(=O)c2cc(C(=O)Nc3cc(C(F)(F)F)cc(NC(=O)CCCCNC(=N)N)c3O[C@@H]3CCNC3)ncn2)c1O[C@@H]1CCNC1 [PMX-30063, N^4,N^6-bis(2-((R)-pyrrolidin-3-yloxy)-3-((4-carbamoylbutyl)guanidine)-5-(trifluoromethyl)phenyl)pyrimidine-4,6-dicarboxamide tetrahydrochloride salt]
IC50 [1]: ~1800 nM and 1800 nM
reduction of UC score ([2]; 40 mg/kg (so in the source) intrarectally): 67%
reduction of median UC score ([2]; 100 mg/kg intrarectally): 33%
reduction of UC score ([2]; 200 mg/kg intrarectally): 67%
reduction of intestine weights compared to untreated controls ([2]; 400 mg/kg intrarectally): 17%
ulcerative colitis score compared to untreated controls (in words) ([2]; 400 mg/kg intrarectally): significantly reduced
tolerability (in words) ([2]; mouse, in vivo): well-tolerated
ulcerative colitis score (in words) ([2]; rectal administration, 100, 200, 400 mg/kg): dose dependent decrease
intestine weights compared to untreated controls (in words) ([2]; rectal administration, 100-400 mg/kg once daily): reduced, but not significantly
effect on LPS-induced TNF-α production (in words) ([3]; NR8383, 45 min pretreatment, 1 μg/ml LPS 8 h): inhibited
inhibition at 0.5 µM ([3]; Rattus norvegicus, Macrophage, 8 h): ~50%
IC50 ([3]; Rattus norvegicus, Macrophage, NR8383 cells, ELISA, 45 min pretreatment, 8-hour LPS, read-out: IC50, inhibition of LPS-induced TNF-α release): 442 nM
IC50 [4]: 702 nM
IL-1β in colonic tissue biopsies vs baseline (in words) ([5]; Week 6 (Day 42)): reduced
IL-6 in colonic tissue biopsies vs baseline (in words) ([5]; Week 6 (Day 42)): reduced
subjects achieving clinical remission (with Endoscopic response) ([5]; after 6 weeks, each cohort (50 mg, 100 mg, 200 mg, daily retention enema)): > 50%
IC50 [6]: 425 nM

From patent US20230310435A1, “HOST DEFENSE PROTEIN (HDP) MIMETICS FOR PROPHYLAXIS AND/OR TREATMENT OF INFLAMMATORY DISEASES OF THE GASTROINTESTINAL TRACT” (priority 2015, published 2023)
